Results on 10 molecules are retold here after patent US7790710B2, “Imidazopyridine derivatives useful as iNOS inhibitors” (NYCOMED GmbH, priority 2005, dated 2010).

Series [1] addresses T1, human inducible NO-synthase (Homo sapiens, UniProt P35228). The experiment in a line: Measurement of inducible NO-synthase activity. Type of series: biochemical. The conditions noted are these: crude cytosolic fraction containing human iNOS; 0.1 μM arginine; [3H]arginine; read-out: Inhibition of iNOS activity -logIC50 (converted). The procedure: (§1) The assay is performed in 96-well microtiter F-plates (Greiner, Frickenhausen, FRG) in a total volume of 100 μl in the presence of 100 nM calmodulin, 226 μM CaCl2, 477 μM MgCl2, 5 μM flavin-adenine-dinucleotide (FAD), 5 μM flavin mononucleotide (FMN), 0.1 mM nicotinamide adenine dinucleotide phosphate (NADPH), 7 mM glutathione, 10 μM tetrahydrobiopterine (BH4) and 100 mM 4-(2-hydroxyethyl)piperazine-1-ethanesulfonic acid (HEPES) pH 7.2. Arginine concentrations are 0.1 μM for enzyme inhibition experiments. 150000 dpm of [^3H]arginine are added to the assay mixture. Enzyme reaction is started by the addition of 4 μg of a crude cytosolic fraction containing human inducible NO-synthase and the reaction mixture is incubated for 45 to 60 min at 37° C. Enzyme reaction is stopped by adding 10 μl of 2M 2-morpholinoethane sulfonic acid buffer (MES-buffer) pH 5.0. 50 μl of the incubation mixture are transferred into a MADP N65 filtration microtiter plate (Millipore, Eschborn, FRG) containing already 50 μl of AG-50W-X8 cation exchange resin (Biorad, München, FRG). The resin in the Na loaded form is pre-equilibrated in water and 70 μl (corresponding to 50 μl dry beads) are pipetted under heavy stirring with a 8 channel pipette into the filtration plate. After pipetting 50 μl of the enzyme reaction mixture onto the filtration plates, the plates are placed on a filtration manifold (Porvair, Shepperton, UK) and the flow through is collected in Pico scintillation plates (Packard, Meriden, Conn.). The resin in the filtration plates is washed with 75 μl of water (1×50 μl and 1×25 μl) which is also collected in the same plate as the sample. The total flow through of 125 μl is mixed with 175 μl of Microscint-40 scintillation cocktail (Packard) and the scintillation plate is sealed with TopSeal P-foil (Packard). Scintillation plates are counted in a szintillation counter.
(§2) For the measurement of inducible NO-synthase-inhibiting potencies of compounds according to the invention increasing concentrations of inhibitors are included into the incubation mixture. IC50 values are calculated from the percent inhibition at given concentrations by nonlinear least square fitting.

Series [2] has as its target T1, human inducible NO-synthase. The experiment in a line: Measurement of inducible NO-synthase activity in the presence of 20% human plasma serum. The series is classed as biochemical. The conditions noted are these: 20% (v/v) human plasma serum added into the reaction volume; read-out: Inhibition of iNOS activity -logIC50 20% human serum (converted). The procedure: as §1, §2
The assay determining the human plasma serum binding of compounds according to the invention was performed essentially as the enzymatic activity assay described above. Human plasma serum 20% (v/v) was added into the reaction volume. Human serum was obtained after coagulation and sedimentation of drawn donor blood. After centrifugation (two times 3500 rpm, 30 min) the plasma serum was dialyzed in phosphate buffered saline (PBS) for 18 h using dialysis cassettes with a molecular weight cuttoff of 3500 Dalton (Slide-a-Lyzer 3.5 K, Pierce, Rockford Ill.) in order to reduce the L-arginine concentration that is interfering with the radioactive activity assay. The buffer was refreshed 5 times during dialysis. The serum was aliquoted and frozen at −20° C. until use. Inhibitory potency of the compounds according to the invention was determined as described above.

For orientation: melting point means the temperature of the solid-liquid transition. In turn, `CN(CC1CCCO1)S(=O)(=O)c1ccc(-c2cnc3[nH]c(CCC4CCCCC(N)=N4)nc3c2)cc1` (stereo not shown) [compound 10, 4-{2-[2-(7-Amino-3,4,5,6-tetrahydro-2H-azepin-2-yl)-ethyl]-3H-imidazo[4,5-b]pyridin-6-yl}-N-methyl-N-(tetrahydro-furan-2-ylmethyl)-benzenesulfonamide] displayed a melting point of 260 °C. Moreover, the IC50 in series [1] was 0.617 µM.

In the case of `COc1ccc(-c2cnc3[nH]c(CCC4CCCCC(N)=N4)nc3c2)cc1` (stereo not shown) [compound 3, 7-{2-[6-(4-Methoxy-phenyl)-3H-imidazo[4,5-b]pyridin-2-yl]-ethyl}-4,5,6,7-tetrahydro-3H-azepin-2-ylamine], the melting point is 306 °C. Further, in series [2], the IC50 is 1.58 µM. The IC50 in series [1] is 0.251 µM.

For the molecule `N#Cc1ccc(-c2cnc3[nH]c(CCC4CCCCC(N)=N4)nc3c2)cc1` (stereo not shown) [compound 2, 7-[2-(6-{4-Cyano-phen-1-yl}-3H-imidazo[4,5-b]pyridin-2-yl)-ethyl]-4,5,6,7-tetrahydro-3H-azepin-2-ylamine], the melting point was 175 °C (dec.). Further, the IC50 in series [2] is 0.398 µM. Also, the IC50 in series [1] is 0.224 µM.

`CCN1CCN(S(=O)(=O)c2ccc(-c3cnc4[nH]c(CCC5CCCCC(N)=N5)nc4c3)cc2)CC1` (stereo not shown) [compound 7, 7-(2-{6-[4-(4-Ethyl-piperazine-1-sulfonyl)-phenyl]-3H-imidazo[4,5-b]pyridin-2-yl}-ethyl)-4,5,6,7-tetrahydro-3H-azepin-2-ylamine] returned a melting point of 199 °C. The IC50 in series [1] was 0.468 µM.

`NC1=NC(CCc2nc3cc(-c4ccc(S(=O)(=O)N5CCC5)cc4)cnc3[nH]2)CCCC1` (stereo not shown) [compound 6, 7-(2-{6-[4-(Azetidine-1-sulfonyl)-phenyl]-3H-imidazo[4,5-b]pyridin-2-yl}-ethyl)-4,5,6,7-tetrahydro-3H-azepin-2-ylamine]: the melting point is 154 °C (dec.). The IC50 in series [2] is 0.603 µM. For the same molecule, the IC50 in series [1] was 0.302 µM.

With `CN(C)S(=O)(=O)c1ccc(-c2cnc3[nH]c(CCC4CCCCC(N)=N4)nc3c2)cc1` (stereo not shown) [compound 5, 4-{2-[2-(7-Amino-3,4,5,6-tetrahydro-2H-azepin-2-yl)-ethyl]-3H-imidazo[4,5-b]pyridin-6yl}-N,N-dimethyl-benzenesulfonamide], the melting point is 195 °C (dec.). Besides, the IC50 in series [2] is 0.933 µM. Moreover, the IC50 in series [1] was 0.229 µM.

The molecule `Cc1ccc(NS(=O)(=O)c2ccc(-c3cnc4[nH]c(CCC5CCCCC(N)=N5)nc4c3)cc2)c(F)c1` (stereo not shown) [compound 8, 4-{2-[2-(7-Amino-3,4,5,6-tetrahydro-2H-azepin-2-yl)-ethyl]-3H-imidazo[4,5-b]pyridin-6-yl}-N-(2-fluoro-4-methyl-phenyl)-benzenesulfonamide] gave a melting point of 265 °C. Moreover, in series [1], the IC50 is 0.589 µM.

With `NC1=NC(CCc2nc3cc(-c4cc5ccccc5o4)cnc3[nH]2)CCCC1` (stereo not shown) [compound 4, 7-[2-(6-Benzofuran-2-yl-3H-imidazo[4,5-b]pyridin-2-yl)-ethyl]-4,5,6,7-tetrahydro-3H-azepin-2-ylamine], the figures for the IC50 in series [2] and in series [1] were 0.955 µM and 0.229 µM, respectively.

For the molecule `Cc1ccccc1NS(=O)(=O)c1ccc(-c2cnc3[nH]c(CCC4CCCCC(N)=N4)nc3c2)cc1` (stereo not shown) [compound 9, 4-{2-[2-(7-Amino-3,4,5,6-tetrahydro-2H-azepin-2-yl)-ethyl]-3H-imidazo[4,5-b]pyridin-6-yl}-N-o-tolyl-benzenesulfonamide], the melting point was determined as 215 °C. Moreover, the IC50 in series [1] was 0.398 µM.

Regarding `NC1=NC(CCc2nc3cc(-c4ccccc4)cnc3[nH]2)CCCC1` (stereo not shown) [compound 1, 7-[2-(6-Phenyl-3H-imidazo[4,5-b]pyridin-2-yl)-ethyl]-4,5,6,7-tetrahydro-3H-azepin-2-ylamine], the melting point is 117 °C (dec.). In series [2], the IC50 is 1 µM. Further, in series [1], the IC50 is 0.17 µM.
